Experiments:
[1] = test system: Xanthomonas campestris p.v. phaseoli; assay: Effect of the antipathogenic protein on bacterial pathogens (growth inhibition); format: cell-based; settings: concentration where the bacteria growth is inhibit in a 50%; ± standard deviation
[2] = test system: Pseudomonas syringae p.v. syringae; assay: as above; format: cell-based; settings: concentration where the bacteria growth is inhibit in a 50%; ± standard deviation
[3] = test system: Erwinia carotovorum p.v. carotovora; assay: as above; format: cell-based; settings: concentration where the bacteria growth is inhibit in a 50%; ± standard deviation
[4] = test system: Pseudomonas avenae; assay: as above; format: cell-based; settings: concentration where the bacteria growth is inhibit in a 50%; ± standard deviation
[5] = test system: Erwinia chrysanthemi p.v. zea; assay: as above; format: cell-based; settings: concentration where the bacteria growth is inhibit in a 50%; ± standard deviation
[6] = test system: Phytophthora infestans; format: cell-based; settings: different concentrations
[7] = test system: Cándida albicans; settings: cited from earlier work
[8] = test system: several plant pathogens; format: cell-based

With “NmDef-02: new anti-pathogenic small cysteine rich protein isolated from Nicotiana megalosiphon; also chemically synthesized without the signal peptide (RECKAQGRHTTCFRDANCVQVCEKQAGWSHGDCRAQFKCKCIFEC; Nicotiana megalosiphon)” the IC50 [1] was 40 ± 3 µM, the IC50 [2] was 26 ± 6 µM and the IC50 [3] was 86 ± 8 µM. The IC50 [4] was 17 ± 5 µM, the IC50 [5] was 11 ± 8 µM and the “inhibition of the growth of P. infestans” value ([6]; FIG. 4B) was “high levels of inhibition growth”.

For “Rs-AFP2: plant anti-pathogenic protein from the literature (QKLCQRPSGTWSGVCGNNNACKNQCIRLEKARHGSCNYVFPAHKCICYFPC; UniProt P30230 30-80, looked up)”, the “activity against Cándida albicans” value [7] is given as “active in micromolar concentrations”.

For “SEQ ID No. 9: fragment of the antipathogenic protein NmDef-02 obtained by chemical synthesis (QAGWSHGDCRAQFKCKCIFEC; Nicotiana megalosiphon)”, the “effect of fragments on the pathogen P. infestans” value ([6]; FIG. 6) was “control or inhibition of pathogen”.

B1: NmDef-Plus: antipathogenic protein fused to the signal peptide of the Saccharomyces cerevisiae alpha factor, expressed in Pichia pastoris (protein)
chain: APVNTTTEDETAQIPAEAVIGYSDLEGDFDVAVLPFSNSTNNGLLFINTTIASIAAKEEGVSRECKAQGRHTTCFRDANCVQVCEKQAGWSHGDCRAQFKCKCIFEC
For B1, the “inhibition of the growth of plant pathogens” value [8] was “high levels of inhibition growth”.

From patent publication US9055744B2 (priority 2008, dated 2015)
